Target: T1, 5-lipoxygenase (Mus musculus, UniProt P48999)
T1 construct: The supernatant is used as a 5-lipogenase enzyme solution; endogenous in cells
T1 sequence (P48999 1-674): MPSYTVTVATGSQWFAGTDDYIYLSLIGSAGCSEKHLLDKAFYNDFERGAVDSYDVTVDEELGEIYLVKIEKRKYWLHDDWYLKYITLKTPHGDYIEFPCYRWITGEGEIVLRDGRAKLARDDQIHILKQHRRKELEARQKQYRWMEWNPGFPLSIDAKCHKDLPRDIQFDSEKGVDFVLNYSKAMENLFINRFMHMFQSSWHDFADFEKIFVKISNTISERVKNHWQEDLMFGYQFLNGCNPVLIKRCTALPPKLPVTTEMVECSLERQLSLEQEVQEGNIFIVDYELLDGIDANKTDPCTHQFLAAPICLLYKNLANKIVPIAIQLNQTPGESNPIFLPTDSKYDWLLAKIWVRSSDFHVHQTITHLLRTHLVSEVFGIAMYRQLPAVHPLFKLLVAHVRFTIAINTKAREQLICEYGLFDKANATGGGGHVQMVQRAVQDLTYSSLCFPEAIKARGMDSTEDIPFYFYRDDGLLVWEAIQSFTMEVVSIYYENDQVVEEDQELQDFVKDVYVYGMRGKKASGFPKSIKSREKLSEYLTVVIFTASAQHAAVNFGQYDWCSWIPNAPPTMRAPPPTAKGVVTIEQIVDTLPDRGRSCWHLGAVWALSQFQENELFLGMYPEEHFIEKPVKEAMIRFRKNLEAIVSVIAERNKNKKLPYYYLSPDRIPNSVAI
Assay: 5-Lipoxygenase-inhibiting Activity (decrease in 5-HETE and LTB4 formed from radiolabelled arachidonic acid, enzyme solution from mouse mastcytoma cells P-815)
Assay type: biochemical
Settings: not given
Description: Mouse mastcytoma cells P-815 are diluted in a culture solution, containing 90% Eagle Basic Medium (manufactured by Gibco Laboratories) to 5×10^4 cells/ml. The diluted solution is cultivated with shaking in air at 37° C. for 48 hours. Then, the culture solution is cooled with ice and centrifuged to collect the cells. The cells are suspended in a phosphate buffer solution at pH 7.4 at a concentration of 2×10^7 cells/ml. The suspension is treated in a ultrasonic cell disintegrater and then centrifuged at 10,000 r.p.m. for 10 min. The supernatant is used as a 5-lipogenase enzyme solution. In test tubes are placed 20 μl of radiolabelled arachidonic acid ([…]), indomethacin (2×10^-8 mol) and an amide derivative to be tested, respectively. To each of the test tubes are added 0.45 ml of a phosphate buffer solution, 0.45 ml of the above-prepared suspension, 0.45 ml of the above-prepared enzyme solution and 0.1 ml of 8 mM CaCl2 (calcium chloride). The mixture is reacted at 37° C. for 5 min. After cooled with ice, 60 μl of 1N-HCl (hydrochloric acid is added to the reaction mixture, which is then extracted with 8 ml of ethyl acetate. The extract is concentrated, and the concentrate is developed by spotting on a silica gel thin layer plate (Merck 60F 254). Measurement of the inhibitory activity is made by collecting fractions corresponding to lipoxygenase products 5-HETE (5(s)-hydroxy-6,8,11,14-eicosatetraenic acid) and LTB4 (leucotriene B4) and determining the radioactivity by a liquid scintillation counter. The lipoxygenase inhibiting activity is determined by decrease in the amount of the above-mentioned 5-lipoxygenaseproducts. […] 50% inhibitory concentration or 30% inhibitory concentration as indicated in the table means the concentration of an amide derivative required for reducing the amount of the above-mentioned 5-lipoxygenase products (5-HETE and LTB4) to 50% or 30% of the amount when the amount of 5-HETE and LTB4 produced in the absenced of the amide derivative is 100%.

Row | SMILES | IC50 [nM]
1 | O=C(/C=C/C=C/c1ccc(O)c(O)c1)N1CCN(CCOC(c2ccccc2)c2ccccc2)CC1 [Example 84, N-[5-(3,4-dihydroxyphenyl)-2,4-pentadienoyl]--N'-(2-benzhydroxyethyl)piperazine] | 30
2 | COc1cc(/C=C/C=C/C(=O)N2CCN(CCOC(c3ccccc3)c3ccccc3)CC2)cc(OC)c1O [Example 98, N-[5-(3,5-dimethoxy-4-hydroxyphenyl)-2,4-pentadienoyl)-N'-(2-benzhydroxyethyl)piperazine] | 9
3 | COc1cc(/C=C/C=C/C(=O)N2CCN(CCOC(c3ccccc3)c3ccccc3)CC2)ccc1O [Example 89, N-[5-(3-methoxy-4-hydroxyphenyl)-2,4-pentadienoyl]-N'-(2-benzhydroxyethyl)piperazine] | 60

Same assay, conditions: 5-HETE and LTB4 formation; mouse mastcytoma P-815 enzyme solution; 37° C., 5 min; pH 7.4; with indomethacin; read-out: 50% Inhibitory concentration IC50

Row | IC50 [nM] | SMILES
4 | 60 | COc1cc(/C=C/C=C/C(=O)NCCN2CCN(C(c3ccccc3)c3ccc(Cl)cc3)CC2)ccc1O (stereo not shown) [Example 16, N-(p-chlorobenzhydryl)-N'-[2-{5-(3-methoxy-4-hydroxyphenyl)-2,4-pentadienoyl}aminoethyl]piperazine]
5 | 30 | COc1cc(/C=C/C=C/C(=O)NCCCN2CCN(C(c3ccccc3)c3ccccc3)CC2)cc(OC)c1O [Example 55]
6 | 30 | COc1cc(/C=C/C(=O)NCCCCN2CCN(C(c3ccccc3)c3ccccc3)CC2)cc(OC)c1O [Example 78, N-benzyhdryl-N'-3-(3,5-dimethoxy-4-hydroxy)phenyl-2-propenoylaminobutylpiperazine]
7 | 40 | COc1cc(/C=C/C(=O)NCCCCN2CCN(C(c3ccccc3)c3ccccc3)CC2)ccc1O [Example 68]
8 | 100 | O=C(/C=C/c1ccc(O)c(O)c1)NCCN1CCN(C(c2ccccc2)c2ccccc2)CC1 [Example 9, N-benzhydryl-N'-[2-{3-(3,4-dihydroxyphenyl)-2-propenoyl}-aminoethyl]piperazine]
9 | 3000 | O=C(/C=C/C=C/c1ccc2c(c1)OCO2)NCCN1CCN(C(c2ccccc2)c2ccccc2)CC1 [Example 61, N-[2-[5-(3,4-methylenedioxyphenyl)-2,4-pentadienoyl]aminoethyl]-N'-benzhydrylpiperazine]
10 | 10 | O=C(/C=C/C=C/c1ccc(O)c(O)c1)NCCN1CCN(C(c2ccccc2)c2ccc(Cl)cc2)CC1 (stereo not shown) [Example 28]
11 | 30 | O=C(/C=C/c1ccc(O)c(O)c1)NCCOC(c1ccccc1)c1ccccc1 [Example 67, 2-[3-(3,4-dihydroxy)phenyl-2-propenoyl]aminoethyl benzhydryl ether]
12 | 20 | O=C(/C=C/C=C/c1ccc(O)c(O)c1)NCCCCN1CCC(OC(c2ccccc2)c2ccccc2)CC1 [Example 129, 1-[4-[5-(3,4-dihydroxyphenyl)-2,4-pentadienoyl]aminobutyl]-4-benzhydroxypiperidine]
13 | 60 | COc1cc(/C=C/C=C/C(=O)NCCCCN2CCN(C(c3ccccc3)c3ccccc3)CC2)ccc1O [Example 87, N-benzhydryl-N'-[4-[5-(3-methoxy-4-hydroxyphenyl)-2,4-pentadienoyl]aminobutyl]piperzine]
14 | 40 | O=C(/C=C/C=C/c1ccc(O)c(O)c1)N1CCN(C(c2ccccc2)c2ccccc2)CC1 [Example 26]
15 | 600 | COc1cc(/C=C/C(=O)NCCN2CCN(C(c3ccccc3)c3ccccc3)CC2)ccc1O [Example 2, N-benzhydryl-N'-[2-{3-(3-methoxy-4-β-hydroxyphenyl)-2-propenoyl}aminoethyl]piperazine]

Second part, the compound before the results:

Row | SMILES | IC50 [nM]
16 | COc1cc(/C=C/C=C/C(=O)N2CCN(CCOC(C)(c3ccccc3)c3ccc(Cl)cc3)CC2)ccc1O (stereo not shown) [Example 110, N-[5-(3-methoxy-4-hydroxyphenyl)-2,4-pentadienoyl]-N'-[2-[1-phenyl-1-(p-chlorophenyl)ethoxy]ethyl]piperazine] | 10
17 | COc1cc(/C=C/C(=O)Nc2ccccc2C(=O)O)cc(OC)c1O [Example 51, N-[3-(3,5-dimethox-4-hydroxyphenyl)propenoyl]anthranilic acid] | 1000
18 | COc1cc(/C=C/C=C/C(=O)N2CCN(CCCOC(c3ccccc3)c3ccccc3)CC2)ccc1O [Example 90, N-[5-(3-methoxy-4-hydroxyphenyl)-2,4-pentadienoyl]-N'-(3-benzhydroxypropyl)piperazine] | 60
19 | COc1ccc(/C=C/C(=O)NCCOC(c2ccccc2)c2ccccc2)cc1OC [Example 77, 2-[3-(3,4-dimethoxyphenyl)-2-propenoyl]aminoethyl benzhydryl ether] | 10000
20 | COc1cc(/C=C/C=C/C(=O)NCc2c(CO)cnc(C)c2O)cc(OC)c1O [Example 56, 4-[5-(3,5-dimethoxy-4-hydroxyphenyl)-2,4-pentadineoyl]aminomethyl-3-hydroxy-5-hydroxymethyl-2-methylpyridine] | 1000
21 | COc1cc(/C=C/C=C/C(=O)NCc2c(CO)cnc(C)c2O)ccc1O [Example 17] | 4000
22 | COc1cc(/C=C/C=C/C(=O)NCCN2CCN(C(=O)c3ccccc3N)CC2)ccc1O [Example 42, N-(o-aminobenzoyl)-N'-[{5-(3-methoxy-4-hydroxyphenyl)-2,4-pentadienoyl}aminoethyl]piperazine] | 2000
23 | CC/C=C\C/C=C\C/C=C\C/C=C\C/C=C\C/C=C\CCC(=O)NCCCCNC(=O)/C=C/C=C/c1ccc(O)c(O)c1 [Example 22, N-5-(3,4-dihydroxyphenyl)-2,4-pentadienoyl-N'-4,7,10,13,16,19-docosahexaenoyl-1,4-diaminobutane] | 40
24 | COc1cc(/C=C/C(=O)N2CCN(CCCOC(c3ccccc3)c3ccccc3)CC2)cc(OC)c1O [Example 80, N-[3-(3,5-dimethoxy-4-hydroxyphenyl) 2-propenoyl]-N'-(3-benzhydroxypropyl)piperazine] | 30
25 | CC/C=C\C/C=C\C/C=C\CCCCCCCC(=O)NCCCCNC(=O)/C=C/c1ccc(O)c(OC)c1 [Example 3, N-[3-(3-methoxy-4-hydroxyphenyl)-2-propenoyl]-N'-[9,12,15-octadecatrienoyl]-1,4-diaminobutan] | 900
26 | COc1cc(/C=C/C(=O)NCCn2cnc3c2c(=O)n(C)c(=O)n3C)ccc1O [Example 69, 7-[2-[3-(3-methoxy-4-hydroxy)phenyl-2-propenoyl]aminoethyl]theophylline] | 6000
27 | COc1cc(/C=C/C=C/C(=O)NCCN2CCN(C(c3ccccc3)c3ccc(Cl)cc3)CC2)cc(OC)c1O (stereo not shown) [Example 54, N-(p-chlorobenzhydryl)-N'-[2-{5-(3,5-dimethoxy-4-hydroxyphenyl)-2,4-pentadienoyl}aminoethyl]piperazine] | 20
28 | COc1cc(/C=C/C=C/C(=O)N2CCN(CCn3cnc4c3c(=O)n(C)c(=O)n4C)CC2)cc(OC)c1O [Example 114] | 2000
29 | COc1cc(/C=C/C(=O)NCCN2CCN(C(=O)c3ccccc3N)CC2)ccc1O [Example 36, N-(o-aminobenzoyl)-N'-[2-[3-[3-methoxy-4-hydroxyphenyl)-2-propenoyl]aminoethyl]piperazine] | 200000
30 | COc1cc(/C=C/C=C/C(=O)NCCCCNC(C)=O)ccc1O [Example 18, N-{5-(3-methoxy-4-hydroxyphenyl)-2,4-pentadienoyl}-N'-acetyl-1,4-diaminobutane] | 6000
31 | O=C(/C=C/C=C/c1ccc(O)c(O)c1)Nc1ccc(O)cc1 [Example 25, N-5-(3,4-dihydroxyphenyl)-2,4-pentadienoylaminophenol] | 80
32 | COc1cc(/C=C/C(=O)NCCCOC(c2ccccc2)c2ccccc2)ccc1O [Example 73, 3-[3-[3-methoxy-4-hydroxyphenyl)-2-propenoyl]aminopropyl benzhydryl ether] | 700
33 | COc1cc(/C=C/C=C/C(=O)N2CCN(CCCCn3cnc4c3c(=O)n(C)c(=O)n4C)CC2)cc(OC)c1O [Example 132] | 1000
34 | COc1cc(/C=C/C=C/C(=O)NCCn2cnc3c2c(=O)n(C)c(=O)n3C)cc(OC)c1OC [Example 95] | 9000

From US4673684A, “Amide derivatives and 5-lipoxygenase inhibitors containing the same as an active ingredient” (Terumo Corporation, priority 1984, dated 1987)
